Data taken from BindingDB's records for PubMed 1352553 (University of North Carolina, 1992).
Values joined by “and” are separate entries in the source; they are usually repeats but may differ in a detail not shown here. Equal entries are not always repeated.

Experiments:
VIP peptides = VIP peptides (Rattus norvegicus, UniProt P01283)
[1] = target: Arginine vasopressin-induced protein 1 (Rattus norvegicus, UniProt Q8VDA6)
[2] = target: Bombesin receptor subtype-3 (Rattus norvegicus, UniProt Q8K418)
Interleukin-18 = Interleukin-18 (Rattus norvegicus, UniProt P97636)
5'-nucleotidase = 5'-nucleotidase (Rattus norvegicus, UniProt P21588)
[3] = target: Glutamate receptor ionotropic, NMDA 1 (Rattus norvegicus, UniProt P35439)
Protachykinin-1 = Protachykinin-1 (Rattus norvegicus, UniProt P06767)
Angiotensinogen = Angiotensinogen (Rattus norvegicus, UniProt P01015)
[4] = target: Phosphatidylinositol 3,4,5-trisphosphate 5-phosphatase 2 (Rattus norvegicus, UniProt Q9WVR3)
[5] = target: Norepinephrine transporter (Rattus norvegicus, UniProt Q9JIA2)
Beta-nerve growth factor = Beta-nerve growth factor (Rattus norvegicus, UniProt P25427)
[6] = target: Beta-2 adrenergic receptor (Rattus norvegicus, UniProt P10608)
[7] = target: Alpha-1A adrenergic receptor (Rattus norvegicus, UniProt P43140)
Natriuretic peptides A = Natriuretic peptides A (Rattus norvegicus, UniProt P01161)
Adenylate cyclase type 3 = Adenylate cyclase type 3 (Rattus norvegicus, UniProt P21932)
Glutamate receptor 3 = Glutamate receptor 3 (Rattus norvegicus, UniProt P19492)
[8] = target: Glycine amidinotransferase, mitochondrial (Rattus norvegicus, UniProt P50442)
[9] = target: Voltage-dependent L-type calcium channel subunit alpha-1C (Rattus norvegicus, UniProt P22002)
Adenosine kinase = Adenosine kinase (Rattus norvegicus, UniProt Q64640)
[10] = target: Gamma-aminobutyric acid (GABA) B receptor 1 (Rattus norvegicus, UniProt Q6MFX8)
Somatostatin = Somatostatin (Rattus norvegicus, UniProt P60042)
[11] = target: Potassium voltage-gated channel subfamily H member 8 (Rattus norvegicus, UniProt Q9QWS8)
[12] = target: Chloride channel protein 1 (Rattus norvegicus, UniProt P35524)
[13] = target: Glutamate receptor ionotropic, kainate 1 (Rattus norvegicus, UniProt P22756)
[14] = target: Alpha-2C adrenergic receptor (Rattus norvegicus, UniProt P22086)
[15] = target: Gamma-aminobutyric acid receptor subunit alpha-1 (Rattus norvegicus, UniProt P62813)
[16] = target: 5-hydroxytryptamine receptor 2A (Rattus norvegicus, UniProt P14842)
[17] = target: Cholecystokinin receptor type A (Rattus norvegicus, UniProt P30551)
[18] = target: Sigma non-opioid intracellular receptor 1 (Rattus norvegicus, UniProt Q9R0C9)
[19] = target: Pro-epidermal growth factor (Rattus norvegicus, UniProt P07522)

Sequence of Alpha-2C adrenergic receptor (P22086 whole entry): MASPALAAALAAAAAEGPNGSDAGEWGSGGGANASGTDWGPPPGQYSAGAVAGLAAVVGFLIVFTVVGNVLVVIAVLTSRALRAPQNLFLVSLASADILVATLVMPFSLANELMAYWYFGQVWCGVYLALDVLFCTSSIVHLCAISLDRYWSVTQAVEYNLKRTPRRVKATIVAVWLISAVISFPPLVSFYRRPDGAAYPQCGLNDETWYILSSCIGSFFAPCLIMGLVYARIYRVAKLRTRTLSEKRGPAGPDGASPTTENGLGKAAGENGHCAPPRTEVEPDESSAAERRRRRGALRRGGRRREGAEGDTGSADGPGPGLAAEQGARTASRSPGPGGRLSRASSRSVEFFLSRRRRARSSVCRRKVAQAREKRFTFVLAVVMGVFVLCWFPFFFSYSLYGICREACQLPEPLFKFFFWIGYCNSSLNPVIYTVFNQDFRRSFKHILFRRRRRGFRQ
Sequence of Phosphatidylinositol 3,4,5-trisphosphate 5-phosphatase 2 (Q9WVR3 whole entry): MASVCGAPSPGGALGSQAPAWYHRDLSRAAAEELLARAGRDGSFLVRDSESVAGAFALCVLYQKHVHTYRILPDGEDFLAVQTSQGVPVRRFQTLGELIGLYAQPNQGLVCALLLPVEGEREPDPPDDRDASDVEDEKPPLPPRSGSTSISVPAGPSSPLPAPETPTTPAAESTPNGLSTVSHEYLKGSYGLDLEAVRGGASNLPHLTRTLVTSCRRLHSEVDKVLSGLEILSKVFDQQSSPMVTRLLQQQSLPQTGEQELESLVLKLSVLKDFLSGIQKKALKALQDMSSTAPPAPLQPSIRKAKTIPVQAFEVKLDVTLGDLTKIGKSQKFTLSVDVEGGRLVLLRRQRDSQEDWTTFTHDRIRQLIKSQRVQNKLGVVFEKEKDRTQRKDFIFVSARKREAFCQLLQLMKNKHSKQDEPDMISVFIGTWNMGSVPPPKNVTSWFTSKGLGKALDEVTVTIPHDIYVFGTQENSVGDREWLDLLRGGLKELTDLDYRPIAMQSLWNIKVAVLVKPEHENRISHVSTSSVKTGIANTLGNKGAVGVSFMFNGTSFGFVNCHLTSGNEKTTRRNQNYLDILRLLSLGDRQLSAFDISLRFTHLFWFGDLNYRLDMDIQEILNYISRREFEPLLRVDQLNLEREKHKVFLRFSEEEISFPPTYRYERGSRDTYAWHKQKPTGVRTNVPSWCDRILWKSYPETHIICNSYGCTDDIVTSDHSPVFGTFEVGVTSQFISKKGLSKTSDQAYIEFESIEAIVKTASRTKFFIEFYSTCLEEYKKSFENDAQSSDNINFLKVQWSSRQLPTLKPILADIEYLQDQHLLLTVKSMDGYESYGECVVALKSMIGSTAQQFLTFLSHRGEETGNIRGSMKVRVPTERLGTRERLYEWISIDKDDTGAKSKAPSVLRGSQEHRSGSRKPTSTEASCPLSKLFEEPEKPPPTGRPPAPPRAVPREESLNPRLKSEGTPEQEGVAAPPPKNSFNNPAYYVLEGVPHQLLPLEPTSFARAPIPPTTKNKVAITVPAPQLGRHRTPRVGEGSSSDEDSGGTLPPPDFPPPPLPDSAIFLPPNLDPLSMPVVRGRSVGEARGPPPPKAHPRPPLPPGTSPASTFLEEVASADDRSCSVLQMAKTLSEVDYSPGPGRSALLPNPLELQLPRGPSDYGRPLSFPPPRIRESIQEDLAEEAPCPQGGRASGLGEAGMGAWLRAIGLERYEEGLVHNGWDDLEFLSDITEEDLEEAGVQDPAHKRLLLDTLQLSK
Sequence of Natriuretic peptides A (P01161 whole entry): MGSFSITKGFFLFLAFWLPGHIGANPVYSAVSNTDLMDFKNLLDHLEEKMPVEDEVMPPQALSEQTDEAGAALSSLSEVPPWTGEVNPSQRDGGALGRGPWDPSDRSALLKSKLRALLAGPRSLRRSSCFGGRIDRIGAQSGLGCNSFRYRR
Sequence of Potassium voltage-gated channel subfamily H member 8 (Q9QWS8 whole entry): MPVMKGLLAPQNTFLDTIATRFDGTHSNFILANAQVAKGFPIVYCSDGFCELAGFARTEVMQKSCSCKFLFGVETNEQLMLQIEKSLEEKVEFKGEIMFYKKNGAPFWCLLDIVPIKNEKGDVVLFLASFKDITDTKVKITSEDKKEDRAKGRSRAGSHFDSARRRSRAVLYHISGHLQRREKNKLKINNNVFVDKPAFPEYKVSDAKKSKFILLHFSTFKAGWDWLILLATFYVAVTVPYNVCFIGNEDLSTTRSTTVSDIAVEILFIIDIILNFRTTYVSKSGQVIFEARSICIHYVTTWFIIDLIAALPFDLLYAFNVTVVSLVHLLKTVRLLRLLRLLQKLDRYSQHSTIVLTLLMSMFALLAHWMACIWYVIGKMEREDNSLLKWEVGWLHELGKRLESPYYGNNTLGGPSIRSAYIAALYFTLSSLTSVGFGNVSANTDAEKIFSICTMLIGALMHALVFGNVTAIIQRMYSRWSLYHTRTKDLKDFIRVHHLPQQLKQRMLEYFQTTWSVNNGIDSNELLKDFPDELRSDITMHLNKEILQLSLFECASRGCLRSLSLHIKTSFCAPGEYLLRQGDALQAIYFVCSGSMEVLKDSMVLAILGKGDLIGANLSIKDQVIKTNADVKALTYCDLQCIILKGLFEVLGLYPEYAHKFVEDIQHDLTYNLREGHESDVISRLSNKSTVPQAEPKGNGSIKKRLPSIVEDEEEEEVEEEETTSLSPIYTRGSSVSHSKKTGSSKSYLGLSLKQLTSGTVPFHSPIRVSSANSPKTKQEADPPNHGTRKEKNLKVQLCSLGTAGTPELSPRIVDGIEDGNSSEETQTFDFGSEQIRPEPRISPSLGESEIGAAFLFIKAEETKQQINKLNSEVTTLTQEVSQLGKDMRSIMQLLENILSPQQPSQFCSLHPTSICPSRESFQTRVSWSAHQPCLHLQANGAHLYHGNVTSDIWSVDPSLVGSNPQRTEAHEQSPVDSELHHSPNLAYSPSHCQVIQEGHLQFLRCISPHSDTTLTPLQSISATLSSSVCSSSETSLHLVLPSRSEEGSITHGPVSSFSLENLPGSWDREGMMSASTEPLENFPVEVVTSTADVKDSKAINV
Sequence of Interleukin-18 (P97636 whole entry): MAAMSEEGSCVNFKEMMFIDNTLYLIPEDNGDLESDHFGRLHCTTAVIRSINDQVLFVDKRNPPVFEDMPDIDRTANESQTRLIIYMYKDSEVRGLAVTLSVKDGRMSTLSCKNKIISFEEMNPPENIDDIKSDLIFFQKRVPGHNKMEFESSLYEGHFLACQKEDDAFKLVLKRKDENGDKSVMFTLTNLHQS
Sequence of Bombesin receptor subtype-3 (Q8K418 whole entry): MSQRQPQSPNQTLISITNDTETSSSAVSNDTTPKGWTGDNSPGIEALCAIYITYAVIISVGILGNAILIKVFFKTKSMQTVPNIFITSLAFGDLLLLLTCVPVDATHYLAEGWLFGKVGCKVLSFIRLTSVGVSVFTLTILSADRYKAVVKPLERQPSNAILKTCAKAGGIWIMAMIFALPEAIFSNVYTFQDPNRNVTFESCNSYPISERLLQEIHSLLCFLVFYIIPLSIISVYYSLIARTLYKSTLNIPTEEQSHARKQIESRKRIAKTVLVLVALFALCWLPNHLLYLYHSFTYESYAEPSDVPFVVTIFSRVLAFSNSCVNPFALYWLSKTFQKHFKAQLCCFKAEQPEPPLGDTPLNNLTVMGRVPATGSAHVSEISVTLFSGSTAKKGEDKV
Sequence of Glycine amidinotransferase, mitochondrial (P50442 whole entry): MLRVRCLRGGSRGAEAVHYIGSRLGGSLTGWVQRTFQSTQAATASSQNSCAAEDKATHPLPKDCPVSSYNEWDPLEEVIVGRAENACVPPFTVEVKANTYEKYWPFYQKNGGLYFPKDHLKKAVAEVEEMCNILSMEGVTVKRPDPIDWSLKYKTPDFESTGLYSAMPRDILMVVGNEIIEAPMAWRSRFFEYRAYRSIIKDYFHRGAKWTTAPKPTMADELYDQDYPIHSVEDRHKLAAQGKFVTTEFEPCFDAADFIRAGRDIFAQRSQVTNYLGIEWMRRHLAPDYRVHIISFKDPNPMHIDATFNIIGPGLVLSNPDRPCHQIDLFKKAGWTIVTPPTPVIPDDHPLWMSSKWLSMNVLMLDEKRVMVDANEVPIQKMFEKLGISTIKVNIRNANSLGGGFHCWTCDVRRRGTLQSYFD
Sequence of Glutamate receptor 3 (P19492 whole entry): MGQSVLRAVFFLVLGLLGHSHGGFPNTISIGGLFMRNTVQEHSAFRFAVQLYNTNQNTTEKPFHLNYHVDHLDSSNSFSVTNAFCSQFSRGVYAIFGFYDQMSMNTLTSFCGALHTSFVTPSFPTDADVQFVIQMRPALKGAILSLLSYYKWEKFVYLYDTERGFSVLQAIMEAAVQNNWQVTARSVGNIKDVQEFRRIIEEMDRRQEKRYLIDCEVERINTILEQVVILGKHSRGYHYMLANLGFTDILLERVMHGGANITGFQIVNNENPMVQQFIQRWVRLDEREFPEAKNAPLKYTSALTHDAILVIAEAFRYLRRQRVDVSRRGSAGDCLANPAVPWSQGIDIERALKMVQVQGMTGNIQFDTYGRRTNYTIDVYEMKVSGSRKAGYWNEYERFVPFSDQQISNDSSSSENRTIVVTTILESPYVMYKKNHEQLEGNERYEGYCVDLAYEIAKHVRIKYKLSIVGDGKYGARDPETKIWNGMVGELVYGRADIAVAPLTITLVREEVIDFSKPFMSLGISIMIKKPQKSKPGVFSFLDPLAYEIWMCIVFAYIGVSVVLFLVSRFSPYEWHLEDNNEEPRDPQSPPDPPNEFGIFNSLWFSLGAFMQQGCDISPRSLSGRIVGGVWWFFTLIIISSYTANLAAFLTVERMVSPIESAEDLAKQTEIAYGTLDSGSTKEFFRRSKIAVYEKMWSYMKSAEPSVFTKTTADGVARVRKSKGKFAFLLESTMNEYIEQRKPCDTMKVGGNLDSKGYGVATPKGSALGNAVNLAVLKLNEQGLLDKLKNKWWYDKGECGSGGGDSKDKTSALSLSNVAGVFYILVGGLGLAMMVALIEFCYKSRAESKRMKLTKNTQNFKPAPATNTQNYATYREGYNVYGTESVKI
Sequence of Arginine vasopressin-induced protein 1 (Q8VDA6 whole entry): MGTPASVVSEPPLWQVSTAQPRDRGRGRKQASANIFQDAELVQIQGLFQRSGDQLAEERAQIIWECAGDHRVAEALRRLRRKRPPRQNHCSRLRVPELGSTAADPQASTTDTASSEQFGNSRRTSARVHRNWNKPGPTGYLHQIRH

Q: What does the source list for Oc1cc2c(cc1O)[C@@H]1c3ccccc3CN[C@@H]1CC2 [(+/-)-trans-10,11-dihydroxy-5,6,6a,7,8,12b-hexahydrobenzo[a]phenanthridine]?
A: Ki (VIP peptides): > 10 µM; Ki [1]: > 10 µM; Ki [2]: > 10 µM; Ki (Interleukin-18): > 10 µM; Ki (5'-nucleotidase): > 10 µM; Ki [3]: > 10 µM; Ki (Protachykinin-1): > 10 µM; Ki (Angiotensinogen): > 10 µM; Ki [4]: > 10 µM; Ki [5]: > 10 µM; Ki (Beta-nerve growth factor): > 10 µM; Ki [6]: > 10 µM; Ki [7]: > 10 µM; Ki (Natriuretic peptides A): > 10 µM; Ki (Adenylate cyclase type 3): > 10 µM; Ki (Glutamate receptor 3): > 10 µM; Ki [8]: > 10 µM; Ki [9]: > 10 µM; Ki (Adenosine kinase): > 10 µM; Ki [10]: > 10 µM; Ki (Somatostatin): > 10 µM; Ki [11]: > 10 µM; Ki [12]: > 10 µM; Ki [13]: > 10 µM; Ki [14]: 0.23 µM and 1 µM; Ki [15]: > 10 µM; Ki [16]: > 10 µM; Ki [17]: > 10 µM; Ki [18]: > 10 µM; Ki [19]: > 10 µM
